This experiment concerns the target Cyclin-A2/Cyclin-dependent kinase 2 (Homo sapiens, UniProt P24941). The experiment can be described thus: CDK Inhibition Assay. As to conditions: pH 7.5; 22 °C. As to the method:
In vitro kinase assay using purified CDK2/Cyclin A was incubated at room temperature with substrate, and test compounds in the presence of 100 uM ATP/ [gamma-33P] ATP. Assays were performed in 96-well polypropylene plates. 33P incorporation into substrate was measured using a scintillation counter.

Structures are written as SMILES.

Turning to `NS(=O)(=O)c1ccc(-c2ccc(/C=c3\sc4nc5ccccc5n4c3=O)o2)cc1` [4-(5-{[(4Z)-3-oxo-5-thia-2,7-diazatricyclo[6.4.0.0^{2,6}]dodeca-1(12),6,8,10-tetraen-4-ylidene]methyl}furan-2-yl)benzene-1-sulfonamide], half-maximal inhibition (IC50) was put at 760 nM.

What is called IC50 is the midpoint of a concentration-inhibition curve. Low readings indicate higher potency, high ones lower potency.

For the origin of these results see BindingDB's records for doi:10.1016/j.bmcl.2007.04.110 (Vernalis (R&D), 2007).
